The values that follow come from patent US9969755B2, “Photodynamic therapy photosensitizers” (The Royal Institution for the Advancement of …, priority 2016, dated 2018).

Common to all, as to format: physicochemical
Data set [1] in a line: Absorption and steady-state fluorescence, fluorescence quantum yield in acetonitrile. The procedure:
Absorption spectra were recorded using a Hitachi U-2800 UV-vis-NIR spectrophotometer. Luminescence spectra were recorded using a PTI QuantaMaster spectrofluorimeter using 10×10 mm quartz cuvettes and corrected for detector sensitivity.
The steady-state fluorescence spectra were recorded between 500-800 nm (depending on each compound) upon exciting at the wavelength of the absorbance maxima. The excitation and emission slits were tuned according to the fluorescence quantum yield of each BODIPY (i.e. for compound 7 excitation slits were 5 nm and for compound 4 we used 2 nm). Fluorescence was recorded every 1 nm using 0.1 s integration time. For the Fluorescence lifetime measurements, the excitation rate was 10 MHz, and the detection frequency was less than 100 kHz. Photons were collected at the magic angle. The fluorescence decay traces were fit using FluoFit (Picoquant) software. For steady-state and time-resolved fluorescence measurements a quartz cuvette with a 10 mm path length was used and all the solutions were prepared in air equilibrated acetonitrile.
Quantum yields of fluorescence were measured using PM605 in acetonitrile as a reference. Absorption and emission spectra of PM605 and the dye of interest were measured in acetonitrile at five different concentrations. The integrated intensity versus absorbance were then plotted and fitted linearly. Relative quantum yields of fluorescence for the unknown with respect to the standard were obtained from equation 1, where φ, Δ, and n refer, respectively, to the quantum yield, the slope obtained from the above-mentioned plot, and the solvent refractive index for the unknown (x) or standard (st).

The nature of data set [2]: Laser flash photolysis: triplet excited state decay and quenching. How it is done:
The 500 mJ/pulse laser output was attenuated yielding 10 mJ laser pulses of 6 ns in duration. Samples were prepared in acetonitrile. The final absorbance of the BODIPY dyes was 0.1. The concentration was kept low to avoid triplet-triplet annihilation. Each sample was de-oxygenated by purging with argon gas for at least 30 min. Quartz cells containing 10×10 mm path length were used. The decay of the BODIPYs was monitored between 420-440 and 520-550 nm (depending the BODIPY) following the laser excitation. Samples were irradiated with a total of 6 laser shots to acquire the temporal evolution of ΔOD.
A second layer of control was subsequently tested via LFP studies, to monitor the extent to which the trap segment deactivates the triplet excited state of the photosensitizes. […] The two quenchers emulate the trap segments utilized in 7 and 8, respectively.

Data set [3] in a line: ^1O2 quantum yield, photooxidation of DMA (indirect method). The note with it: consumption of dimethylanthracene, Rose Bengal standard, air equilibrated acetonitrile. The procedure:
Solutions of 9,10-dimethylanthracene (DMA, 50 μM) and photosensitizers (compound 3-10) in air equilibrated acetonitrile were irradiated in 10 mm path length quartz cell (3 ml) with a Nd:Yag laser exciting at 532 nm. Laser excitation was performed at 10 Hz, providing one laser output for every discharge of the flashlamp. An irradiation time of 1 s is equivalent to 10 laser pulses. The energy of each pulse was 10 mJ. The kinetics of DMA photooxidation were studied by following the decrease of the absorbance at λ=377 nm. The observed rate constant (kobs) was obtained by a linear least-squares fit of the semilogarithmic plot of ln [DMA]0/[DMA] (see FIG. 14). Quantum yields of ^1O2 production (φΔ^I) were calculated comparing the kobs=kq [^1O2] for the corresponding photosensitizer with that for Rose Bengal, which was used as a reference (φΔ=0.54).^1 Measurements of the sample and the reference under the same conditions afforded φΔ^I for compounds (3-10) by direct comparison of the slope in the linear region of the plots.
For the indirect detection of ^1O2, it is possible to determine the kq value considering that the production of ^1O2 is constant compare with the initial concentration of DMA. According to these, a pseudo first-order kinetic for this reaction is proposed (equations 2 to 5): […]
The conversion of DMA followed pseudo-first order kinetics with the different photosensitizers (see FIG. 14). From equation 5, it was possible to determine kobs and ^1O2.

Data set [4] is described as follows: ^1O2 quantum yield and lifetime, ^1O2 phosphorescence at 1270 nm (direct method). The note with it: ^1O2 phosphorescence at 1270 nm, air equilibrated acetonitrile. How it is done: The generation of singlet oxygen and its lifetime were determined from ^1O2 phosphorescence decay curves recorded at 1270 nm upon excitation with a 532 nm Nd:YAG laser. A total of 3 laser shots were applied to acquire a trace. […] Quantum yield of ^1O2 production (φΔ^D) were calculated comparing the intensity of ^1O2 phosphorescence at 1270 nm for the corresponding photosensitizer with that recorded for Rose Bengal (φΔ=0.54).^81

Data set [5] in a line: Electrochemical studies (cyclic voltammetry). Further details: E^oB^+·/B (reversible oxidation potential): unit not given here. The conditions noted are these: vs ferrocene, acetonitrile. The procedure: Electrochemical measurements were performed using a three-electrode system. The working electrode was a Pt wire, a Pt mesh wire was used as the counter electrode, and a Ag/AgCl electrode was used as the reference. A 0.1 M solution of tetrabutylammonium hexafluorophosphate in dry acetonitrile was used as the electrolyte solvent in which the compounds were dissolved to 1 mM or to saturation when the latter occurred before reaching a 1 mM concentration. Concentration was determined from their absorption and calculated extinction coefficient. Solutions also contained ferrocene with a concentration of 1 mM as an internal standard. The solutions were equilibrated with argon, and all measurements were conducted under inert atmosphere, with a minimum scan rate of 0.2 V s^−1. When the acquired cyclic voltammograms were not reversible the scan rate was increased up to 1 V s^−1. Formal redox potentials were calculated from the midpoint of the cathodic and anodic peak potentials observed in the cyclic voltammograms. All values were reported vs ferrocene, with the oxidation of ferrocene measured and corrected to zero for all experiments.

The nature of data set [6]: Phosphorescence studies at 77 K. Further details: unit not given beside the values. The note with it: from phosphorescence emission spectra, 4:1 EtOH:MeOH. The procedure: Phosphorescence from compounds 3-6 was observed cooling a 4:1 EtOH:MeOH solution to 77 K with liquid nitrogen. Dilute sample solutions (Abs<0.1) were prepared in NMR tubes and suspended in a coldfinger Dewar (custom-made by Ace Glass) filled with liquid nitrogen.

The nature of data set [7]: Gibbs free energy for photoinduced electron transfer (equation 6). An excerpt: Consistent with quenching of the singlet via PeT from the chromanol segment, the Gibbs free energy for photoinduced electron transfer (ΔGeT^0) was exergonic for compounds 7 and 8, in the range of 0.4 eV (see Table 3).
Based on these calculations ΔGeT^0 for PeT from the chromanol to the triplet excited state of 3-6 was endergonic, ca. 0.27 eV, accounting for the small intermolecular rate constant of quenching measured for these compounds in the presence of either PMHC or trolox, and for the long triplet decay rate constant kT recorded for compound 8. Importantly, the efficiency of PeT also relies in the distance between the trap segment and the photosensitizers a factor that may additionally contribute to the differences observed between compound 7 (methylene linker) and compound 8 (ester linker).

Consider `CC(=O)OCC1=C2C(C)=C(Br)C(C)=[N+]2[B-](F)(F)n2c(C)c(Br)c(C)c21` [Compound 6, 8-Acetoxymethyl-2,6-dibromo-1,3,5,7-tetramethyl Pyrromethene Fluoroborate], for which, in data set [1], the “E00 (HOMO-LUMO gap from intercept of normalized absorption and emission spectra)” value is 2.25 eV. Moreover, in data set [1] (acetonitrile, room temperature), the “abs λmax” value is reported as 543 nm, the “em λmax” value is listed as 562 nm, the “Φf (fluorescence quantum yield)” value was determined as 0.14 ± 0.02 and the “ε (extinction coefficient)” value is 81000 M⁻¹ cm⁻¹. The “drop in φf following inclusion of I or Br atoms” value in data set [1] (relative to unsubstituted analogue (1 for 3 and 4; 2 for 5 and 6)) was roughly 6 fold. Also, the “kq (triplet quenching rate constant) Q = PMHC” value in data set [2] (Ar saturated acetonitrile) is given as 2.23 ± 0.05 × 10^8 M^−1s^−1. Also, in data set [2] (T-T absorption at 430 nm or 550 nm, argon saturated solutions), the “Triplet decay rate constant kT” value worked out at 27000 s⁻¹. For the same compound, the “kT (triplet decay rate constant) Air equilibrated” value in data set [2] (acetonitrile, air equilibrated) is 6.67 ± 0.04 × 10^6 s^−1. Also, the “kT (triplet decay rate constant) Argon Purged” value in data set [2] (acetonitrile, argon purged) is 2.72 ± 0.03 × 10^4 s^−1. Also, in data set [2] (acetonitrile, calculated with oxygen solubility 2.42 mM), the “kq (triplet quenching rate constant) Q = ^3O2” value is reported as 2.80 ± 0.02 × 10^9 M^−1s^−1. Besides, the “ΦΔ^I (singlet oxygen quantum yield, indirect)” value in data set [3] is 0.79 ± 0.02. In addition, in data set [4], the “ΦΔ^D (singlet oxygen quantum yield, direct)” value worked out at 0.84 ± 0.02. Moreover, in data set [5], the “E^oB^+·/B (reversible oxidation potential)” value was found to be 0.94 and the “E^opc (cathodic peak potential)” value was −1.13. Besides, the “E (Triplet), energy of the lowest triplet state” value in data set [6] came out at 1.53. In data set [7] (PeT from chromanol to singlet excited state), the “ΔGeT (Singlet), Gibbs free energy for PeT” value is on record as −0.43 eV. Besides, the “ΔGeT (Triplet), Gibbs free energy for PeT” value in data set [7] (PeT from chromanol to triplet excited state, endergonic) was determined as 0.287 eV.
